Details: pH 7.4
Method: First, the top part of the skin-PAMPA (PAMPA-Certramide) sandwich, which contains the membrane, was hydrated overnight with the hydration solution. Different buffer solutions at pH 3, 4, 5, 6, 7, and 7.4 were prepared to solve the samples. To prepare them, 25 mL of concentrated PRISMA HTTM was diluted to 1 L with water, and 0.5 M NaOH was added to obtain the desired pH. Above pH 8, the skin-PAMPA membrane becomes degraded [40], so pH 7.4 was the highest pH used in the present work. In order to measure the intrinsic permeability, each sample was dissolved in the buffer solution with a pH that ensured the presence of the neutral form. […] In all instances, the pH of the acceptor compartment was 7.4.
A total of 180 µL of sample solution was placed in the donor compartment, and 200 µL of pH 7.4 buffer was placed in the acceptor compartment.
According to previous studies, in which the conditions in the skin-PAMPA measurements were optimized [40], the skin-PAMPA sandwich was incubated at 32 °C for 4 h. Afterwards, the concentration of the compounds was measured in both the donor and the acceptor plates. Additionally, the initial sample solution was quantified. […] The injection volume was 5 μL, and 3 to 5 replicate measurements were performed per compound. Every well-plate contained only one compound.
When the pH is different on the two sides of the membrane, a gradient-pH is created and the permeation of ionizable molecules can be altered. This gradient-pH implies two different permeability coefficients, one on each direction of the membrane, denoted by the subscript (D→A) or (A→D). Equation (5) has two unknowns, Pe(A→D) and Pe(D→A), so an iterative method has to be used to solve it. To this purpose, two different experiments were carried out for each compound, one with a gradient-pH and the other with an iso-pH, that is, the same pH in both compartments (7.4). For the iso-pH, Pe(A→D) = Pe(D→A).
Finally, Equation (5) was iteratively solved for Pe(D→A). Initially, ra was assumed to be rv, but the ra value was improved after each iteration by using the newly obtained Pe(D→A). The process continued until self-consistency was reached within the precision required (0.001). The Solver tool in Microsoft Excel was used for the iterative process.
In the donor compartment, a pH was used in which the compound was in its neutral form, whereas in the acceptor compartment, the buffer was at pH 7.4.

Going from `COC(=O)Cc1ccc(O)cc1` [4-hydroxymethyl phenylacetate] to `COc1ccccc1` [methyl phenyl ether], the “log P0 (intrinsic permeability, PAMPA-Certramide)” value rises from -5.07 to -4.34.

First: CCC1(CC)C(=O)NC(=O)NC1=O [5,5-diethylbarbituric acid (barbital), 5,5-diethylbarbituric acid]
Second: CCC1(c2ccccc2)C(=O)NC(=O)NC1=O [5-ethyl-5-phenylbarbituric acid]
The “log P0 (intrinsic permeability, PAMPA-Certramide)” value of the first is higher: -5.75 for the first, -6.05 for the second.

`Nc1ccccc1` [aniline] and `CC(=O)CC(c1ccccc1)c1c(O)c2ccccc2oc1=O` (stereo not drawn) [warfarin] are within 0.2 log units of each other in “log P0 (intrinsic permeability, PAMPA-Certramide)” value: -4.55 for the first, -4.63 for the second.

Going from `CCNc1nc(Cl)nc(NC(C)C)n1` [atrazine] to `C[C@]12CCC(=O)C=C1CC[C@@H]1[C@@H]2CC[C@@]2(C)[C@H]1CC[C@]2(O)C(=O)CO` [corteloxone], the “log P0 (intrinsic permeability, PAMPA-Certramide)” value falls from -4.67 to -5.45.

With `CC(=O)[C@@]1(O)CC[C@H]2[C@@H]3CCC4=CC(=O)CC[C@]4(C)[C@H]3CC[C@@]21C` [hydroxiprogesterone] the “log P0 (intrinsic permeability, PAMPA-Certramide)” value was -4.70.

Details: cited from earlier work

Going from `CCC1(c2ccccc2)C(=O)NC(=O)NC1=O` [5-ethyl-5-phenylbarbituric acid] to `Oc1ccccc1` [phenol], the “log P0 (permeability, PAMPA-IPM)” value rises from -5.15 to -4.14.

For `CN1CCC[C@H]1c1cccnc1` [nicotine], the “log P0 (permeability, PAMPA-IPM)” value is given as -4.58.

From paper PMC10385989, “Evaluation of the Ability of PAMPA Membranes to Emulate Biological Processes through the Abraham Solvation Parameter Model” (Membranes, 2023)
